Usually inhibition stands for the share of the control response that was lost under treatment.

Data on 1 compound can be found in PMC2577671, “Evaluation of Dimebon in cellular model of Huntington's disease” (Molecular Neurodegeneration, 2008).

Assay [1] has as its target T1, Serotonin 5-HT5A receptor (Homo sapiens, UniProt P47898).
T1 construct: gene HTR5A
As to the kind of experiment: MDS Pharma Services binding screen at […].

In assay [2] the target is T2, Nicotinic Acetylcholine alpha1, Bungarotoxin (Homo sapiens, UniProt P02708).
T2 construct: gene CHRNA1
T2 sequence (P02708 whole entry): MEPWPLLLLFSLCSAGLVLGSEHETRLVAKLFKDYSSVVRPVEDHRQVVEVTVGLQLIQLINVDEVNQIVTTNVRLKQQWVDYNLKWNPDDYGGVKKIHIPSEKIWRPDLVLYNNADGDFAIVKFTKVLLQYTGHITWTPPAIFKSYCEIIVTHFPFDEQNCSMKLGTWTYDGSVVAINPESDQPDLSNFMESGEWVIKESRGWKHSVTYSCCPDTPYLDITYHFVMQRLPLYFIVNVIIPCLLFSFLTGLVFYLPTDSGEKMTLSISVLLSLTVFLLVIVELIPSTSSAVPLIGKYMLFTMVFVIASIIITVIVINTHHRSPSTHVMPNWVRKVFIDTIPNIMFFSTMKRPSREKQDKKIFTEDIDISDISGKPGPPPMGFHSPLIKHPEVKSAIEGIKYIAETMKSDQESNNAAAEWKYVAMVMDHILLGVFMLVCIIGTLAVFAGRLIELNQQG
As to the kind of experiment: biochemical. Also on record: MDS Pharma Lead Profiling screen, binding assays, per cent inhibition, duplicate. As to conditions: read-out: % INHIBITION

T1 sequence (P47898 whole entry): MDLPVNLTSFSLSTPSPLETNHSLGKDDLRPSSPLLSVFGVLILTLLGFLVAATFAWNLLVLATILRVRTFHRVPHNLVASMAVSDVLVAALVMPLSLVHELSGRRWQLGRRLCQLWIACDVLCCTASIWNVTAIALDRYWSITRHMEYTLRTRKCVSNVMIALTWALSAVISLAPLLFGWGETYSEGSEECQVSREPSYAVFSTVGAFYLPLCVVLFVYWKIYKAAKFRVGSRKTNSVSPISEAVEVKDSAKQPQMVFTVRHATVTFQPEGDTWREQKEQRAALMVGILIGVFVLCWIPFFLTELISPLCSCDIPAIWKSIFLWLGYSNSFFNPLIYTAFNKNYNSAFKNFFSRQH

`Cc1ccc2c(c1)c1c(n2CCc2ccc(C)nc2)CCN(C)C1` [Dimebon, 2,3,4,5-Tetrahydro-2,8-dimethyl-5-(2-(6-methyl-3-pyridyl)ethyl)-1H-pyrido(4,3-b)indole]: the inhibition at 10 µM in assay [1] was > 90%; in assay [2] it was 1%.
